Measurements reported in the NIST ThermoML archive (doi:10.1021/acs.jced.6b00178).

Experiment: xn = mol fraction of the nth substance listed
Settings: 100 kPa, Liquid; for viscosity: Concentric cylinders viscometry; for mass density: Vibrating tube method

CCCCn1cc[n+](C)c1.COP(=O)([O-])OC [1-butyl-3-methyl-1H-imidazolium dimethylphosphate] + CCCC[n+]1ccn(C)c1.O=S(=O)([N-]S(=O)(=O)C(F)(F)F)C(F)(F)F
Settings | mass density, x2 = 0 [kg/m3] | mass density, x2 = 0.25 [kg/m3] | mass density, x2 = 0.501 [kg/m3] | mass density, x2 = 0.747 [kg/m3] | viscosity, x2 = 0 [mPa·s] | viscosity, x2 = 0.25 [mPa·s] | viscosity, x2 = 0.501 [mPa·s] | viscosity, x2 = 0.747 [mPa·s]
283.15 K | 1168.4 | 1251 | 1325.1 | 1390.6 | 2315.6 | 1433.7 | 630.61 | 251.51
288.15 K | 1164.9 | 1247 | 1320.6 | 1386 | 1454.6 | 930.25 | 433.3 | 183.6
293.15 K | 1161.4 | 1243.1 | 1316.2 | 1381.5 | 943.97 | 618.01 | 301.49 | 137.3
298.15 K | 1157.9 | 1239.1 | 1312 | 1377 | 641.71 | 432.55 | 222.26 | 104.86
303.15 K | 1154.3 | 1235.2 | 1307.8 | 1372.5 | 446.92 | 307.85 | 165.15 | 81.71
308.15 K | 1150.9 | 1231.4 | 1303.7 | 1368.1 | 319.33 | 224.53 | 125.35 | 64.81
313.15 K | 1147.6 | 1227.7 | 1299.7 | 1363.6 | 232.1 | 166.25 | 96.27 | 52.46
318.15 K | 1144.3 | 1224.1 | 1295.6 | 1359.2 | 174.7 | 127.53 | 76.39 | 42.72
323.15 K | 1141 | 1220.4 | 1291.6 | 1354.8 | 133.37 | 98.92 | 61.14 | 35.4
328.15 K | 1137.8 | 1216.8 | 1287.6 | 1350.4 | 103.62 | 78.04 | 49.65 | 29.69
333.15 K | 1134.6 | 1213.2 | 1283.5 | 1346 | 81.97 | 62.7 | 41.07 | 25.42
338.15 K | 1131.4 | 1209.7 | 1279.5 | 1341.7 | 65.62 | 50.83 | 34.05 | 21.56
343.15 K | 1128.3 | 1206.1 | 1275.6 | 1337.4 | 53.39 | 41.87 | 28.69 | 18.63
348.15 K | 1125.1 | 1202.5 | 1271.6 | 1333.1 | 44.01 | 34.9 | 24.42 | 16.23
353.15 K | 1122 | 1199 | 1267.7 | 1328.8 | 37.08 | 29.8 | 21.36 | 14.57
358.15 K | 1118.9 | 1195.5 | 1263.7 | 1324.6 | 30.94 | 25.03 | 18.18 | 12.61
363.15 K | 1115.7 | 1192 | 1259.9 | 1320.4 | 26.33 | 21.5 | 15.88 | 11.22
